From patent US5270339A, “Phenoxybenzene derivative” (Kanagafuchi Kagaku Kogyo Kabushiki Kaisha, priority 1991, dated 1993)

Tests used:
[1] = test system: experimental amnesia in mice induced by cycloheximide; experiment: Anti-amnesic effect: passive avoidance task (step-through), cycloheximide-induced amnesia; type: in vivo, ddY male mice; conditions: for Step-through latency: mean of group; for responders at 1 mg/kg / responders at 3 mg/kg: Mus musculus, mice with latency > 100 seconds, read-out: Ratio of memory
Procedure: (§1) As experimental animals, Wistar male rats and ddY male mice were used for the tests after they were housed for a week under every 12 hours' dark-light cycle at room temperature of 24° to 26° C.
The effect on experimental amnesia in mice induced by cycloheximide was evaluated.
The experiment was carried out using an experimental apparatus of passive avoidance task for mice (made by Ohara-ika-sangyo K. K.) comprising a box divided into the two compartments of dark and light. That is, the dark compartment [a box having a reverse trapezoid cross section (height: 8 cm, base line: 5 cm, oblique line: 9.5 cm) and having the length of 14 cm] was shield from a light with a black plastic case and was floored with stainless grids for giving an electrical shock so that an electricity might be turned on a determined time after interception of a photobeam placed in the dark compartment. The light compartment made of transparent plastic (a box of the same shape as that of the dark compartment having the length of 16 cm, lightened from a location spaced 25 cm above by a 60 W electric lamp) was provided adjacent to the dark compartment. Between the two compartments, there was provided a circular entrance having the diameter of 3 cm with a guillotine door which could be opened and closed. By using the above-mentioned dark-light box, the experiment was carried out according to the following procedure.
A mouse (5 week-old) previously conditioned in the dark-light box was put in the light compartment and the guillotine door was opened. Three seconds after the mouse moved into the dark compartment and interrupted the photobeam, 0.3 mA electrical shock was given to limbs for 3 seconds from the floor grid (aquisition trial). Just after the mouse rushed into the light compartment, the door was shut and the […] in the light compartment was picked out to return to his home cage. After 24 hours, the mouse was placed again in the light compartment and the period from the opening of the guillotine door to the time the mouse completely entered the dark compartment was recorded maximally 300 seconds as a step-through latency (retention trial).
The amnesia was induced by subcutaneous injection of cycloheximide (120 mg/kg) dissolved in saline 10 minutes before the aquisition trial. As a control, the same amount of saline alone was administered. […]
A ratio of number of mice showing the step-through latency of more than 100 seconds in the group was defined as a ratio of memory for convenience's sake.
The step-through latency in Table 2 was the mean value for each treated group.

M1 receptor = molecular target: T1, M1 receptor (Rattus norvegicus, UniProt P08482); experiment: Receptor binding activity, inhibition of [3H]pyrenzepine binding to M1; conditions: 1 nM [3H]pyrenzepine, rat's brain except cerebellum; for inhibition at 10 µM: 10 μM test compound
T1 construct: rat's brain except for cerebellum was homogenized; from tissue; host or cells: rat brain except cerebellum, homogenate
T1 sequence (P08482 1-460): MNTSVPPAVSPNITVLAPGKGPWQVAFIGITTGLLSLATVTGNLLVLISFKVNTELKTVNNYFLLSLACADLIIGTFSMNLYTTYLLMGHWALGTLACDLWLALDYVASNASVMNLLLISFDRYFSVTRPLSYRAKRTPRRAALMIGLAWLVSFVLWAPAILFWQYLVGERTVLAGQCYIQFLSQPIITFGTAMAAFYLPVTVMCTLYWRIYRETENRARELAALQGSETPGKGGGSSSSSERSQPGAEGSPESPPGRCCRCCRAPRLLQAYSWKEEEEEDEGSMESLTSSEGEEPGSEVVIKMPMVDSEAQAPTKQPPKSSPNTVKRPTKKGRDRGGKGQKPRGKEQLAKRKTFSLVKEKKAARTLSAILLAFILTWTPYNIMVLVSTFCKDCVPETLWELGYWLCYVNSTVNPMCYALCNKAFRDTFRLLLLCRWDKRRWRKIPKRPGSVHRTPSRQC
Procedure: The binding ability of the test compounds to M1 was determined according to a modification of the method of Watson et al. (Life Sci., 32, 3001 (1983)). […] The mixture was incubated for 1 hour. The inhibition rate (%) of the binding with [3H]pyrenzepine was evaluated. The higher inhibition means the higher affinity of the test compound for M1 receptor.

[2] = test system: forced swimming test with rats (duration of immobility); experiment: Antidepressant activity: forced swimming test using rats; type: in vivo, Wistar male rats; conditions: for Effect on duration of immobility (in words): oral administration; for Suppression of duration of immobility: vs saline
Procedure: as §1
That is, a rat (5 week-old) was placed into a glass cylinder having the inside diameter of 18 cm and the height of 40 cm which contained water (water temperature: 25° C.) up to its height of 15 cm. After 15 minutes, the rat was picked up followed by drying and then returned to his home cage. After 24 hours, the rat was again placed into the water in the same cylinder. The duration of immobility (the time rat kept motionless) was accumulatively measured with a stopwatch for five minutes (a five minutes' test). Each test compound was suspended in saline. The administration was carried out three times, at 24, 5 and 1 hour before the five minutes' test in case of an intraperitoneal administration or with only a single administration at 1 hour before the five minutes' test in case of an oral administration to examine the antidepressant effect.
The duration of immobility in Table 4 is the mean value for […] in each group. Suppression is expressed as a ratio in percentage of a reduction of the duration of immobility in the group administered with the test compound to that in the control group administered with saline alone.

[3] = Acute toxicity test, oral; type: in vivo, ddY male mice; conditions: mouse, in vivo, ddY mice, 2 weeks observation
Procedure: With respect to the compounds 1 to 86 shown in Table 1 as test compounds, the acute toxicity was examined using ddY mice according to the following method.
In each group, six male ddY mice weighing 27 to 30 g were employed. The compounds 1 to 86 suspended in an aqueous solution of 0.5% sodium carboxymethylcellulose were administered orally in a volume of 0.1 ml/10 g body weight. […] The LD50 (mg/kg) values were estimated from the ratio of the number of dead mice to the number of mice used.

[4] = p.o., 30 mg/kg, 1 hour before test

SMILES | Step-through latency ([1]; 1 mg/kg oral) [s] | responders at 1 mg/kg ([1]; 1 mg/kg oral) [%] | Step-through latency ([1]; 3 mg/kg oral) [s] | responders at 3 mg/kg ([1]; 3 mg/kg oral) [%] | LD50 at 336 h [3] [mg/kg] | also measured
CCN1CCC(=Cc2cccc(Oc3ccccc3)c2)C1 [Compound 67] | 100 | 50 |  |  |  | Inhibition of the binding with [3H]pyrenzepine (M1) (M1 receptor; 1 μM test compound): 78%
C#CCN(C)Cc1ccccc1 [Pargyline, pargyline, reference compound] |  |  |  |  |  | Effect on duration of immobility (in words) [2]: prolongation of the duration of immobility; Duration of immobility [2, 4]: 244 s; Suppression of duration of immobility ([2]; p.o., 30 mg/kg): -19%
CON1CCC(=Cc2cccc(Oc3ccccc3)c2)C1=O [Compound 22] |  |  | 100 | 50 | ≥ 500 | inhibition at 10 µM (M1 receptor): 63%
C=CCN1CCC(=Cc2cccc(Oc3ccccc3)c2)C1=O [Compound 20] |  |  |  |  | ≥ 500 | inhibition at 10 µM (M1 receptor): 88%
CC(C)N1CCC(=Cc2cccc(Oc3ccccc3)c2)C1 [Compound 84] | 176 | 75 |  |  | ≥ 500 | inhibition at 1 µM (M1 receptor; 1 μM test compound): 75%
O=C1NCCC1=Cc1cccc(Oc2ccccc2)c1 [Compound 1] |  |  | 198 | 72 | ≥ 500 | Duration of immobility ([2]; i.p., 1 mg/kg/time, 24, 5 and 1 hour before test): 164 s; Suppression of duration of immobility ([2]; i.p., 1 mg/kg/time): 20%; Duration of immobility ([2]; i.p., 3 mg/kg/time, 24, 5 and 1 hour before test): 101 s; Suppression of duration of immobility ([2]; i.p., 3 mg/kg/time): 50%; Duration of immobility ([2]; i.p., 10 mg/kg/time, 24, 5 and 1 hour before test): 71 s; Suppression of duration of immobility ([2]; i.p., 10 mg/kg/time): 65%; Duration of immobility ([2]; i.p., 30 mg/kg/time, 24, 5 and 1 hour before test): 54 s; Suppression of duration of immobility ([2]; i.p., 30 mg/kg/time): 74%; Duration of immobility ([2]; p.o., 0.3 mg/kg, 1 hour before test): 190 s; Suppression of duration of immobility ([2]; p.o., 0.3 mg/kg): 7%; Duration of immobility ([2]; p.o., 1 mg/kg, 1 hour before test): 165 s; Suppression of duration of immobility ([2]; p.o., 1 mg/kg): 20%; Duration of immobility ([2]; p.o., 3 mg/kg, 1 hour before test): 137 s; Suppression of duration of immobility ([2]; p.o., 3 mg/kg): 33%; Duration of immobility ([2]; p.o., 10 mg/kg, 1 hour before test): 76 s; Suppression of duration of immobility ([2]; p.o., 10 mg/kg): 63%; Duration of immobility [2, 4]: 34 s; Suppression of duration of immobility ([2]; p.o., 30 mg/kg): 83%
O=C1C(=Cc2cccc(Oc3ccccc3)c2)CCN1CCF [Compound 26] | 196 | 75 |  |  | ≥ 500 | inhibition at 10 µM (M1 receptor): 87%
O=C1NC(N2CCCC2)CC1=Cc1cccc(Oc2ccccc2)c1 (stereo not drawn) [Compound 59] |  |  | 157 | 50 | ≥ 500 | inhibition at 10 µM (M1 receptor): 56%
CC(C)N1CCC(=Cc2cccc(Oc3ccccc3)c2)C1=O [Compound 16] |  |  | 176 | 75 | ≥ 500 | inhibition at 10 µM (M1 receptor): 75%
CN(C)CCCN1c2ccccc2CCc2ccccc21 [Imipramine, imipramine, reference compound] |  |  |  |  |  | Duration of immobility ([2]; i.p., 100 mg/kg/time, 24, 5 and 1 hour before test): 79 s; Suppression of duration of immobility ([2]; i.p., 100 mg/kg/time): 61%; Effect on duration of immobility (in words) [2]: no effect; Duration of immobility [2, 4]: 210 s; Suppression of duration of immobility ([2]; p.o., 30 mg/kg): -2%
CN(C)C(=O)CN1CCC(=Cc2cccc(Oc3ccccc3)c2)C1=O [Compound 35] | 103 | 50 |  |  | ≥ 500 | 
O=C(C=Cc1ccccc1)N1CCC(=Cc2cccc(Oc3ccccc3)c2)C1=O [Compound 44] |  |  | 132 | 38 | ≥ 500 | 
CCC1C(=Cc2cccc(Oc3ccccc3)c2)CCN1C(C)=O (stereo not drawn) [Compound 80] | 100 | 50 |  |  | ≥ 500 | 
CCCCN1CCC(=Cc2cccc(Oc3ccccc3)c2)C1=O [Compound 12] |  |  | 152 | 63 | ≥ 500 | 
CCN1CCC(=Cc2ccc(Oc3ccccc3)cc2)C1=O [Compound 14] |  |  | 100 | 25 | ≥ 500 | 
CC(=O)N1CCC(=Cc2cccc(Oc3ccccc3)c2)C1=O [Compound 41] |  |  | 80 | 25 | ≥ 500 | 
CCN1CC(C)C(=Cc2cccc(Oc3ccccc3)c2)C1=O (stereo not drawn) [Compound 61] | 90 | 50 |  |  | ≥ 500 | 
CCN1C(=O)C(=Cc2cccc(Oc3ccccc3)c2)CC1C (stereo not drawn) [Compound 53] |  |  | 114 | 50 | ≥ 500 | 
CCN1CCC(=Cc2cccc(Oc3ccc(C)cc3)c2)C1 [Compound 19] | 177 | 75 |  |  | ≥ 500 | 
CCN1CCC(Cc2cccc(Oc3ccccc3)c2)C1 (stereo not drawn) [Compound 83] | 188 | 100 |  |  | ≥ 500 | 
CC1CC(=Cc2cccc(Oc3ccccc3)c2)C(=O)N1 (stereo not drawn) [Compound 52] |  |  | 120 | 50 | ≥ 500 | 
CN(C)CCNC(=O)CN1CCC(=Cc2cccc(Oc3ccccc3)c2)C1=O [Compound 36] | 163 | 75 |  |  | ≥ 500 | 
COc1ccc(CN2CCC(=Cc3cccc(Oc4ccccc4)c3)C2=O)cc1 [Compound 49] | 102 | 50 |  |  | ≥ 500 | 
O=C1C(=Cc2cccc(Oc3ccccc3)c2)CCN1Cc1ccc(Cl)cc1 [Compound 50] |  |  | 100 | 50 | ≥ 500 | 
O=C1NCCC1=Cc1cccc(Oc2ccc(Cl)cc2)c1 [Compound 6] |  |  | 101 | 31 | ≥ 500 | 
